Data set [1] can be described thus: solid form stability on storage at elevated temperature/humidity, by XRPD. The class given is physicochemical. The note with it: for Stability / Stability: further changes: XRPD; for Stability: storage at 40° C./75% RH, days as in the value. The protocol: To 20 mg of [4-(6-fluoro-7-methylamino-2,4-dioxo-1,4-dihydro-2H-quinazolin-3-yl)-phenyl]-5-chloro-thiophen-2-yl-sulfonylurea in 3 mL of the various solvents, was added 1.1 eq. of the base in 1 mL solvent. The mixture was shaken for 2 hours and the solutions were left to evaporate down to half their volume to try to precipitate out the salt. […] Oils/emulsions and opaque liquids were left to maturate at 50° C./ambient in an 8 hour cycles for several weeks. […] Solid samples (crystalline and amorphous) were then filtered, dried and then analyzed to judge their purity, crystallinity and stability. Solids were analysed by ^1H NMR to confirm salt formation and analyzed by ion chromatography and TGA to obtain the stoichiometry of the salt.

The nature of data set [2]: gravimetric vapour sorption (GVS). The class given is physicochemical. As to conditions: for GVS: Total weight change 0-90% RH: 25° C.; for GVS: XRPD post GVS: wrapped cells read: shows new form / matches stability samples / shows no change. Here is the method: Sorption isotherms were obtained using a Hiden IGASorp moisture sorption analyser, controlled by CFRSorp software. The sample temperature was maintained at 25° C. by a Huber re-circulating water bath. The humidity was controlled by mixing streams of dry and wet nitrogen, with a total flow rate of 250 ml.min^−1. […] (typical room conditions). A moisture sorption isotherm was performed as outlined below (2 scans giving 1 complete cycle). […] The software uses a least squares minimisation procedure together with a model of the mass relaxation, to predict an asymptotic value. […] The minimum equilibration time was set to 1 hour and the maximum to 4 hours. The sample was recovered after completion of the isotherm and re-analysed by XRPD.

The conditions of data set [3]: for Aqueous solubility**: aqueous thermodynamic solubility, 25° C., 24 hours, expressed as free base equivalents, 100 mg scale-up samples.
Method: The suspension was then filtered through a glass fibre C filter into a 96 well plate. […] Quantitation was by HPLC with reference to a standard solution of approximately 0.1 mg.ml^−1. in DMSO. Different volumes of the standard, diluted and undiluted sample solutions were injected.
If there was sufficient solid in the filter plate, the XRPD pattern was collected.
Setting [4] is: storage, time not stated (figure legend).
The mark [5] stands for this setting: after a further 10 days at 60° C./75% RH.
Setting [6] is: a further 4 days at 60° C./75% RH (figure legend).

Several values for one entry are separate records, joined by “and”; a condition that tells them apart may be missing. Identical values can stand only once. Like-named read-outs stand apart in the source and are kept apart here.

`CNc1cc2[nH]c(=O)n(-c3ccc(NC(=O)NS(=O)(=O)c4ccc(Cl)s4)cc3)c(=O)c2cc1F.N` [ammonium salt (form A), [4-(6-fluoro-7-methylamino-2,4-dioxo-1,4-dihydro-2H-quinazolin-3-yl)-phenyl]-5-chloro-thiophen-2-yl-sulfonylurea ammonium salt]: the “stability with respect to 40° C./75% RH by XRPD” value in data set [1] (setting [4]) is listed as “improvements in crystallinity”.
Take `CNc1cc2[nH]c(=O)n(-c3ccc(NC(=O)NS(=O)(=O)c4ccc(Cl)s4)cc3)c(=O)c2cc1F.[Na]` [Sodium hydroxide, [4-(6-fluoro-7-methylamino-2,4-dioxo-1,4-dihydro-2H-quinazolin-3-yl)-phenyl]-5-chloro-thiophen-2-yl-sulfonylurea sodium salt]: the Stability result in data set [1] (sodium salt) is listed as “Amorphous after 3 days at”. For the same compound, the “stability with respect to 40° C./75% RH by XRPD” value in data set [1] (setting [4]) is recorded as “converts to an amorphous phase”.
As for “[4-(6-fluoro-7-methylamino-2,4-dioxo-1,4-dihydro-2H-quinazolin-3-yl)-phenyl]-5-chloro-thiophen-2-yl-sulfonylurea calcium salt [Calcium acetate]”, the “stability by XRPD” value in data set [1] (3 days at 40° C./75% RH) is given as “remains stable”. In data set [1] (setting [5]), the “Stability: further changes” value is “No changes”. Besides, the Stability result in data set [1] is given as “No changes after 3 days”. For the same compound, the “stability by XRPD” value in data set [1] (setting [6]) is listed as “remains stable”. In data set [2], the “GVS: Total weight change 0-90% RH” value was 13 wt %, mostly 80-90% RH, and the “GVS: XRPD post GVS” value is reported as “XRPD post GVS matches”.
Turning to `CNc1cc2[nH]c(=O)n(-c3ccc(NC(=O)NS(=O)(=O)c4ccc(Cl)s4)cc3)c(=O)c2cc1F.[K]` [Potassium hydroxide, [4-(6-fluoro-7-methylamino-2,4-dioxo-1,4-dihydro-2H-quinazolin-3-yl)-phenyl]-5-chloro-thiophen-2-yl-sulfonylurea potassium salt], the “Aqueous solubility**” value in data set [3] came to 2700 µg/mL. The “stability with respect to 40° C./75% RH by XRPD” value in data set [1] is reported as “converts to an amorphous phase”.
Take `CNc1cc2[nH]c(=O)n(-c3ccc(NC(=O)NS(=O)(=O)c4ccc(Cl)s4)cc3)c(=O)c2cc1F.[Na]` [Sodium Ethoxide, [4-(6-fluoro-7-methylamino-2,4-dioxo-1,4-dihydro-2H-quinazolin-3-yl)-phenyl]-5-chloro-thiophen-2-yl-sulfonylurea sodium salt]: the “Aqueous solubility**” value in data set [3] is 7700 µg/mL. Further, in data set [1] (after 10 days at 40° C./75% RH), the “Stability: further changes” value is on record as “at 40° C./75% RH (no”. In data set [1] (sodium salt), the Stability result is reported as “Some changes after 2 days”. Besides, in data set [2], the “GVS: Total weight change 0-90% RH” value is 8.8 wt %, little hysteresis, and the “GVS: XRPD post GVS” value is “XRPD post GVS shows new”.
On to `CNc1cc2[nH]c(=O)n(-c3ccc(NC(=O)NS(=O)(=O)c4ccc(Cl)s4)cc3)c(=O)c2cc1F.[K]` [form C, [4-(6-fluoro-7-methylamino-2,4-dioxo-1,4-dihydro-2H-quinazolin-3-yl)-phenyl]-5-chloro-thiophen-2-yl-sulfonylurea potassium salt], for which the pH in data set [3] (pH of the suspension in the solubility measurement, potassium salt) was 8.7 and 8.8. Also, the “Thermodynamic solubility in water” value in data set [3] (water) worked out at 4500 µg/mL. In addition, the “XRPD after the GVS experiment” value in data set [2] was “reduced in crystallinity”.
With “[4-(6-fluoro-7-methylamino-2,4-dioxo-1,4-dihydro-2H-quinazolin-3-yl)-phenyl]-5-chloro-thiophen-2-yl-sulfonylurea tromethamine salt”, the “stability by XRPD” value in data set [1] (3 days at 40° C./75% RH) is recorded as “some subtle changes”; in data set [1] (setting [6]), “no further changes”. Also, the “Stability: further changes” value in data set [1] (setting [5]) is “at 40° C./75% RH but no”. Besides, the Stability entry in data set [1] is listed as “Some changes after 3 days”. The “GVS: Total weight change 0-90% RH” value in data set [2] is 4.1 wt %, little hysteresis,. Besides, the “GVS: XRPD post GVS” value in data set [2] is “XRPD post GVS matches”.

The record behind these values is patent publication US20090156620A1, “[4-(6-FLUORO-7-METHYLAMINO-2,4-DIOXO-1,4-DIHYDRO-2H-QUINAZOLIN-3-YL)-PHENYL]-5-CHLORO-THIOPHEN-2-YL-SULFONYLUREA SALTS, FORMS AND METHODS RELATED THERETO” (Portola Pharmaceuticals, Inc., priority 2007, published 2009).
